# Measured values: patent US20210163443A1, “Febrifugine Derivatives” (BRISTOL-MYERS SQUIBB COMPANY, priority 2019, published 2021)
# Where a name gives a salt, the structure may show the parent alone.
# Biological target: T1, human ProRS (prolyl tRNA synthetase moiety of glutamyl prolyl tRNA synthetase, EPRS) (Homo sapiens, UniProt P07814)
# T1 construct: The prolyl tRNA synthetase moiety (ProRS) in the cDNA of glutamyl prolyl tRNA synthetase was subcloned; 6xHis (N, cleaved yes); made in house; host or cells: E. coli BL21 (DE3)
# T1 sequence (P07814 1007-1512 limits assumed): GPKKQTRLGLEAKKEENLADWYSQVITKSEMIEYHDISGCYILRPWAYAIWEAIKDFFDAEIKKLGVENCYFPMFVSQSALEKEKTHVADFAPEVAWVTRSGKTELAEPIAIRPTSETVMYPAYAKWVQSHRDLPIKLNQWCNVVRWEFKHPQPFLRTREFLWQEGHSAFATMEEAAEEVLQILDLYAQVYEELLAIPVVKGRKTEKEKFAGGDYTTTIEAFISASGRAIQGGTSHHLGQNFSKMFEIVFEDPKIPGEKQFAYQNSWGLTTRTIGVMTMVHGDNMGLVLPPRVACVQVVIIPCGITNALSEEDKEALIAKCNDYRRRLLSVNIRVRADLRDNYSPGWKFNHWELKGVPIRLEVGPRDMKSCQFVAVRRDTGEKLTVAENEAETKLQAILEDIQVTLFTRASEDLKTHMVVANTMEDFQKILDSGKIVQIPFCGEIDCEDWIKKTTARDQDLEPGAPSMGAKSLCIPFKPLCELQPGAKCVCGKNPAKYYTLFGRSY
# Assay: Assay for inhibitors of prolyl tRNA synthetase activity (ProRS assay, labeled proline incorporation)
# Type: biochemical
# Conditions: human ProRS 20 nM, 10 min at 37° C.; read-out: EPRS IC50
# Excerpt: In order to establish the activities of the compounds highlighted above, we determined extent of inhibition of prolyl tRNA synthetase activity in dose response curves to obtain IC50 values.
# The prolyl tRNA synthetase moiety (ProRS) in the cDNA of glutamyl prolyl tRNA synthetase was subcloned, tagged with a single biotin, purified and used in the assay.
# Briefly, human ProRS with a 6×N-terminal His tag in pET28N with TVMV BioP was transformed in E. coli BL21 (DE3) cells, selected, overexpressed and purified using a Ni Seph 6 FF XK 16/20 column in the first stage. Ni-NTA eluates were pooled and treated with TVMV protease, and biotinylated using d-Biotin, MgCl2, ATP and the BirA enzyme. This was rerun through a Ni column as before. The eluates were further enriched and purified using membrane ultrafiltration and a SuperDex 200 XK 16/60 column, and peak fractions were confirmed by SDS-PAGE prior to protein amount determination, aliquoting and storage at −80° C. • ProRS assay was performed in 96 well plates in a final reaction volume of 20 μl, using staggered additions of Tris-Cl (pH 7.5, 60 mM), dithiothreitol (2 mM), ATP (5 mM, pH 7.0), MgCl2 6 mM), ProRS (20 nM, with pre-determined active fraction range) and bovine tRNA (20 μg). Controls and compounds, at various concentrations (10 μM to 0.5 nM), were incubated on ice with enzyme mix for 15 min followed by addition of proline (non-labeled and labeled, 3.96 and 1.04 μM (1 μCi) respectively) to initiate the reaction. Reaction was carried out for 10 min at 37° C. and terminated by addition of TCA (10%, 100 μl). Reaction mix was collected on a Whatman GF/B filter using a vacuum filtration manifold. This filter was washed 3 times with 5% TCA followed by 2 washes with ethanol, air dried, and read using a liquid scintillation counter (TopCount NXT) using MicroScint O. IC50 values were calculated and analyzed using ToolSet (4-parameter plot) and depicted herein.
row,SMILES,IC50
1,"O=C(C[C@H]1NCCC[C@@H]1O)Cn1cnc2ccc(-c3cccc(C(F)(F)F)c3)cc2c1=O [Example 18, 3-{3-[(2R,3S)-3-Hydroxypiperidin-2-yl]-2-oxopropyl}-6-[3-(trifluoromethyl)phenyl]quinazolin-4(3H)-one hydrochloride]",40 nM
2,"Cc1cc(C#N)cc2c(=O)n(CC(=O)C[C@H]3NCCC[C@@H]3O)cnc12 [Example 12, 3-{3-[(2R,3S)-3-Hydroxypiperidin-2-yl]-2-oxopropyl}-8-methyl-4-oxo-3,4-dihydroquinazoline-6-carbonitrile hydrochloride]",17 nM
3,"Cc1c(Cl)ccc2c(=O)n(CC(=O)C[C@H]3NCCC[C@@H]3O)cnc12 [Example 2, 7-Chloro-3-{3-[(2R,3S)-3-hydroxypiperidin-2-yl]-2-oxopropyl}-8-methylquinazolin-4(3H)-one hydrochloride]",15 nM
4,"COC(=O)N1CCC[C@H](O)[C@H]1C[C@H](O)Cn1cnc2c(C)cc(Cl)cc2c1=O [Example 65, Methyl (2R,3S)-2-((S)-3-(6-chloro-8-methyl-4-oxoquinazolin-3(4H)-yl)-2-hydroxypropyl)-3-hydroxypiperidine-1-carboxylate]",> 10000 nM
5,"O=C(C[C@H]1NCCC[C@@H]1O)Cn1cnc2cccc(C(F)(F)F)c2c1=O [Example 25, 3-{3-[(2R,3S)-3-Hydroxypiperidin-2-yl]-2-oxopropyl}-5-(trifluoromethyl)quinazolin-4(3H)-one hydrochloride]",10 nM
6,"COc1ccc2c(=O)n(CC(=O)C[C@H]3NCCC[C@@H]3O)cnc2c1C [Example 4, 3-{3-[(2R,3S)-3-Hydroxypiperidin-2-yl]-2-oxopropyl}-7-methoxy-8-methylquinazolin-4(3H)-one hydrochloride]",49 nM
7,"O=C(C[C@H]1NCCC[C@@H]1O)Cn1cnc2cccc(-c3cccnc3)c2c1=O [Example 28, 3-{3-[(2R,3S)-3-Hydroxypiperidin-2-yl]-2-oxopropyl}-5-(pyridin-3-yl)quinazolin-4(3H)-one dihydrochloride]",6 nM
8,"O=C(C[C@H]1NCCC[C@@H]1O)Cn1cnc2cccc(-c3cccc(F)c3)c2c1=O [Example 15, 5-(3-Fluorophenyl)-3-{3-[(2R,3S)-3-hydroxypiperidin-2-yl]-2-oxopropyl}quinazolin-4(3H)-one hydrochloride]",6 nM
9,"O=C(C[C@H]1NCCC[C@@H]1O)Cn1cnc2ccc(-c3cccc(Cl)c3)cc2c1=O [Example 17, 6-(3-Chlorophenyl)-3-{3-[(2R,3S)-3-hydroxypiperidin-2-yl]-2-oxopropyl}quinazolin-4(3H)-one hydrochloride]",28 nM
10,"Cc1cc(S(C)(=O)=O)cc2c(=O)n(CC(=O)C[C@H]3NCCC[C@@H]3O)cnc12 [Example 8, 3-{3-[(2R,3S)-3-Hydroxypiperidin-2-yl]-2-oxopropyl}-8-methyl-6-methylsulfonyl)quinazolin-4(3H)-one hydrochloride]",9 nM
11,"O=C(C[C@H]1NCCC[C@@H]1O)Cn1cnc2ccc(-c3cccc(F)c3)cc2c1=O [Example 16, 6-(3-Fluorophenyl)-3-{3-[(2R,3S)-3-hydroxypiperidin-2-yl]-2-oxopropyl}quinazolin-4(3H)-one hydrochloride]",10 nM
12,"O=c1c2cc(-c3cccc(F)c3)ccc2ncn1C[C@@H](O)C[C@H]1NCCC[C@@H]1O [Example 50, 6-(3-Fluorophenyl)-3-{(S)-2-hydroxy-3-[(2R,3S)-3-hydroxypiperidin-2-yl]propyl}quinazolin-4(3H)-one hydrochloride]",14 nM

# Second part, the compound after the results:
row,IC50,SMILES
1,28 nM,"Cc1cc(-c2cccc(C(F)(F)F)c2)cc2c(=O)n(CC(=O)C[C@H]3NCCC[C@@H]3O)cnc12 [Example 20, 3-{3-[(2R,3S)-3-Hydroxypiperidin-2-yl]-2-oxopropyl}-8-methyl-6-[3-(trifluoromethyl)phenyl]quinazolin-4(3H)-one hydrochloride]"
2,20 nM,"Cc1cc(C(F)(F)F)cc2c(=O)n(C[C@@H](O)C[C@H]3NCCC[C@@H]3O)cnc12 [Example 44, 3-{(S)-2-Hydroxy-3-[(2R,3S)-3-hydroxypiperidin-2-yl]propyl}-8-methyl-6-trifluoromethyl)quinazolin-4(3H)-one hydrochloride]"
3,23 nM,"CCc1cc(C)c2ncn(C[C@@H](O)C[C@H]3NCCC[C@@H]3O)c(=O)c2c1 [Example 41, 6-Ethyl-3-{(S)-2-hydroxy-3-[(2R,3S)-3-hydroxypiperidin-2-yl]propyl}-8-methylquinazolin-4(3H)-one hydrochloride]"
4,321 nM,"Cc1cc(N2CCCC2)cc2c(=O)n(C[C@@H](O)C[C@H]3NCCC[C@@H]3O)cnc12 [Example 58, 3-{(S)-2-Hydroxy-3-[(2R,3S)-3-hydroxypiperidin-2-yl]propyl}-8-methyl-6-(pyrrolidin-1-yl)quinazolin-4(3H)-one dihydrochloride]"
5,9 nM,"Cc1cc(OC(F)(F)F)cc2c(=O)n(CC(=O)C[C@H]3NCCC[C@@H]3O)cnc12 [Example 7, 3-{3-[(2R,3S)-3-Hydroxypiperidin-2-yl]-2-oxopropyl}-8-methyl-6-(trifluoromethoxy)quinazolin-4(3H)-one hydrochloride]"
6,21 nM,"Cc1cc(C(C)C)cc2c(=O)n(C[C@@H](O)C[C@H]3NCCC[C@@H]3O)cnc12 [Example 45, 3-{(S)-2-Hydroxy-3-[(2R,3S)-3-hydroxypiperidin-2-yl]propyl}-6-isopropyl-8-methylquinazolin-4(3H)-one hydrochloride]"
7,30 nM,"Cc1cc(-c2ccn(C)n2)cc2c(=O)n(C[C@@H](O)C[C@H]3NCCC[C@@H]3O)cnc12 [Example 64, 3-{(S)-2-hydroxy-3-[(2R,3S)-3-hydroxypiperidin-2-yl]propyl}-8-methyl-6-(1-methyl-1H-pyrazol-3-yl)quinazolin-4(3H)-one hydrochloride]"
8,11 nM,"Cc1cc(-c2cccnc2)cc2c(=O)n(C[C@@H](O)C[C@H]3NCCC[C@@H]3O)cnc12 [Example 55, 3-{(S)-2-Hydroxy-3-[(2R,3S)-3-hydroxypiperidin-2-yl]propyl}-8-methyl-6-(pyridin-3-yl)quinazolin-4(3H)-one dihydrochloride]"
9,158 nM,"Cc1cc(C)c2ncn(C[C@@H](O)C[C@H]3NCCC[C@@H]3O)c(=O)c2c1 [Example 39, 3-{(S)-2-Hydroxy-3-[(2R,3S)-3-hydroxypiperidin-2-yl]propyl}-6,8-dimethylquinazolin-4(3H)-one hydrochloride]"
10,32 nM,"Cl.[2H]C([2H])([2H])c1cc(Cl)cc2c(=O)n(C[C@@H](O)C[C@H]3NCCC[C@@H]3O)cnc12 [Example 35, 6-Chloro-3-{(S)-2-hydroxy-3-[(2R,3S)-3-hydroxypiperidin-2-yl]propyl}-8-(methyl-d3)quinazolin-4(3H)-one hydrochloride]"
11,506 nM,"CCc1cc(Cl)cc2c(=O)n(C[C@@H](O)C[C@H]3NCCC[C@@H]3O)cnc12 [Example 38, 6-Chloro-8-ethyl-3-{(S)-2-hydroxy-3-[(2R,3S)-3-hydroxypiperidin-2-yl]propyl}quinazolin-4(3H)-one hydrochloride]"
12,7 nM,"Cc1cc(C(F)(F)F)cc2c(=O)n(CC(=O)C[C@H]3NCCC[C@@H]3O)cnc12 [Example 9, 3-{3-[(2R,3S)-3-Hydroxypiperidin-2-yl]-2-oxopropyl}-8-methyl-6-(trifluoromethyl)quinazolin-4(3H)-one hydrochloride]"
